Laboratory results reported in patent US6825230B2, “Spiro and dispiro 1,2,4-trixolane antimalarials” (Medicines for Malaria Venture MMV, priority 2002, dated 2004).
Converted amounts (≈) assume the structure as drawn. Where two headings read alike, the source gives them in different places.

Columns and labels:
[1] = system: ANKA strain of P. berghei; assay: Single dose STI in vivo screen in infected mice; set-up: species or system Plasmodium berghei; conditions: for Survival (days) 10 mg/kg po: single 10 mg/kg po in 3% ethanol and 7% Tween 80; for Survival (days) 10 mg/kg po / Survival (days) 10 mg/kg SSV po / Survival (days) 10 mg/kg sc: untreated 6-7 days; for Activity (%) 10 mg/kg po: single 10 mg/kg po in 3% ethanol and 7% Tween 80 on day 1 post-infection; for Survival (days) 10 mg/kg SSV po: single 10 mg/kg po in SSV; for Activity (%) 10 mg/kg SSV po: single 10 mg/kg po in standard suspending vehicle (SSV) on day 1 post-infection; for Survival (days) 10 mg/kg sc: single 10 mg/kg sc in 3% ethanol and 7% Tween 80; for Activity (%) 10 mg/kg sc: single 10 mg/kg sc in 3% ethanol and 7% Tween 80 on day 1 post-infection
[2] = system: Schistosoma mansoni adult worms (49-day-old); assay: Effect on adult schistosomes (49-day-old) in infected mice; assay type: in vivo; conditions: for % reduction of adult worms growth at day 49 after per os application of 400 mg/kg, TWR (%) / Adult worms day 49, per os 400 mg/kg, DEAD WORM (%): single 400 mg/kg per os
Protocol: Mice were infected with 100 Schistosoma mansoni cercariae on day 49 post-treatment. Each group was treated per os with OZ compounds at single doses of 200, 400, and 600 mg/kg. Untreated mice served as the control. All groups were killed 4 weeks after treatment and the liver and intestine were removed and separated. The liver and intestine were compressed and alive male and female worms could be seen and counted.

[3] = system: chloroquine-sensitive NF54 strain of P. falciparum; assay: In vitro antimalarial semiautomated microdilution assay ([3H]-hypoxanthine incorporation), NF54 strain; assay type: cell-based, Plasmodium falciparum; conditions: for IC50: Plasmodium falciparum
Procedure, shortened: (§1)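 IC50 comes from Logit regression of [3H]-hypoxanthine incorporation data. Intraerythrocytic P. falciparum taken from asynchronous stock cultures is exposed to OZ compounds in a semiautomated microdilution format.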

[4] = system: chloroquine-resistant K1 strain of P. falciparum; assay: In vitro antimalarial semiautomated microdilution assay ([3H]-hypoxanthine incorporation), K1 strain; assay type: cell-based, Plasmodium falciparum; conditions: Plasmodium falciparum
Procedure, shortened: as §1

[5] = percent reduction in parasitemia on day 3
[6] = 49-day-old adults, total worm reduction rate
[7] = percentage of dead worm in the liver
[8] = NF54, 72 h, read-out: IC50 (ng/ml) NF54, chloroquine-sensitive NF54 strain, 72 h incubation
[9] = K1, 72 h, read-out: IC50 (ng/ml) K1, chloroquine-resistant K1 strain, 72 h incubation
[10] = percent reduction in parasitemia on day 3, 10 mg/kg
[11] = chloroquine-sensitive NF54 strain, 72 h incubation, read-out: IC50 (ng/ml) NF54
[12] = chloroquine-resistant K1 strain, 72 h incubation, read-out: IC50 (ng/ml) K1

Structure (SMILES) | Survival (days) 10 mg/kg po [1] | Activity (%) 10 mg/kg po [1, 5] [%] | Survival (days) 10 mg/kg SSV po [1] | Activity (%) 10 mg/kg SSV po [1, 5] | Survival (days) 10 mg/kg sc [1] | Activity (%) 10 mg/kg sc [1, 5] [%] | % reduction of adult worms growth at day 49 after per os application of 400 mg/kg, TWR (%) [2, 6] [%] | Adult worms day 49, per os 400 mg/kg, DEAD WORM (%) [2, 7] [%] | also measured
O=C1COC2(CCC3(CC2)OOC2(O3)C3CC4CC(C3)CC2C4)OC1 (stereo not shown) [OZ130, Adamantane-2-spiro-3′-11′-oxo-1′,2′,4′,9′,13′-pentaoxadispiro[4.2.5.2]pentadecane] | 9.0 days | 98.8 | 8.0 days | 98.9% | 7.3 days | 98.6 | 0 | 8 | IC50 [3, 8]: 0.94 ng/mL (≈ 2.68 nM); IC50 [4, 9]: 0.62 ng/mL (≈ 1.77 nM)
CC1(C)COC(c2ccc([C@H]3CC[C@]4(CC3)OOC3(O4)C4CC5CC(C4)CC3C5)cc2)=N1 (stereo partly shown) [OZ154] | – | – | – | – | – | – | 58 | 0 | Survival (days) 10 mg/kg po ([1]; 10 mg/kg): 14.7 days; Activity (%) 10 mg/kg po [1, 10]: 99.74%; Survival (days) 10 mg/kg SSV po ([1]; 10 mg/kg): 8.7 days; Activity (%) 10 mg/kg SSV po [1, 10]: 81%; Survival (days) 10 mg/kg sc ([1]; 10 mg/kg): 7.7 days; Activity (%) 10 mg/kg sc [1, 10]: 59%; IC50 (ng/ml) NF54 ([3]; chloroquine-sensitive NF54 strain, 72 h incubation): 6.1 ng/mL (≈ 13.9 nM); IC50 [4, 9]: 5 ng/mL (≈ 11.4 nM)
CCS(=O)(=O)N1CCC2(CC1)OOC1(O2)C2CC3CC(C2)CC1C3 (stereo not shown) [OZ79] | – | – | – | – | – | – | 4 | 0 | –
CCOC(=O)CC1CCC2(CC1)OOC1(O2)C2CC3CC(C2)CC1C3 (stereo not shown) [OZ61] | – | – | – | – | – | – | 8 | 21 | –
O=S1(=O)CCC2(CC1)OOC1(O2)C2CC3CC(C2)CC1C3 (stereo not shown) [OZ50] | – | – | – | – | – | – | 12 | 4 | –
c1ccc(C2(c3ccccn3)OOC3(O2)C2CC4CC(C2)CC3C4)nc1 (stereo not shown) [OZ81] | – | – | – | – | – | – | 28 | 0 | –
c1ccc(C2CCC3(CC2)OOC2(O3)C3CCCC2CCC3)cc1 (stereo not shown) [OZ67] | – | – | – | – | – | – | 38 | 0 | –
Clc1ccc(C2(c3ccc(Cl)cc3)OOC3(O2)C2CC4CC(C2)CC3C4)cc1 (stereo not shown) [OZ43] | – | – | – | – | – | – | 1 | 0 | –
CC1(C)COC2(CCC3(CC2)OOC2(O3)C3CCCC2CCC3)OC1 (stereo not shown) [OZ68] | – | – | – | – | – | – | 17 | 0 | –
O=C(O)C1CCC2(CC1)OOC1(O2)C2CC3CC(C2)CC1C3 (stereo not shown) [OZ72] | – | – | – | – | – | – | 0 | – | Adult worms day 49, per os 400 mg/kg, DEAD WORM (%) ([2]; percentage of dead worm in the liver, listed as OZ 72): 10%
OC1(c2ccc(F)cc2)CCC2(CC1)OOC1(O2)C2CC3CC(C2)CC1C3 (stereo not shown) [OZ76] | – | – | – | – | – | – | 32 | 0 | –
O=[N+]([O-])c1cccc(C2(c3cccc([N+](=O)[O-])c3)OOC3(O2)C2CC4CC(C2)CC3C4)c1 (stereo not shown) [OZ105, Adamantane-2-spiro-3′-5′,5′-bis(3′-nitrophenyl)-1′,2′,4′-trioxolane] | 5.7 days | 16 | 5.7 days | 0% | 6.3 days | 28 | 8 | 0 | IC50 [4, 9]: 5.4 ng/mL (≈ 12.3 nM)
O=C(C1CCCCC1)N1CC(=O)N2CCc3ccccc3C2C1 (stereo not shown) [PRAZIQUANTEL, praziquantel, reference compound] | – | – | – | – | – | – | 93 | 89 | % reduction of adult worms growth at day 49 after per os application of 600 mg/kg, TWR (%) ([2]; single 600 mg/kg per os, 49-day-old adults, total worm reduction rate): 100/100%; Adult worms day 49, per os 600 mg/kg, DEAD WORM (%) ([2]; single 600 mg/kg per os, percentage of dead worm in the liver): 100/100%
O=C(CO)N1CCC2(CC1)OOC1(O2)C2CC3CC(C2)CC1C3 (stereo not shown) [OZ83] | – | – | – | – | – | – | 7 | 19 | –
CC(=O)N1CCC2(CC1)OOC1(O2)C2CC3CC(C2)CC1C3 (stereo not shown) [OZ49] | – | – | – | – | – | – | 17 | 10 | –
O=C1CNC(=O)N1C[C@H]1CC[C@]2(CC1)OOC1(O2)C2CC3CC(C2)CC1C3 (stereo partly shown) [OZ206] | 8.0 days | 93 | 8.7 days | 92% | 9.7 days | 91 | – | – | IC50 [3, 8]: 2.7 ng/mL (≈ 7.17 nM); IC50 [4, 9]: 1 ng/mL (≈ 2.66 nM)
O=[N+]([O-])c1ccc(C2(c3ccccc3)OOC3(O2)C2CC4CC(C2)CC3C4)cc1 (stereo not shown) [OZ95, Adamantane-2-spiro-3′-5′-(4′-nitrophenyl)-5′-phenyl-1′,2′,4′-trioxolane] | 6.0/6.0/6.0 days | 31 | 6.0/6.0/6.0 days | 0% | 6.0/6.0/6.0 days | 49 | – | – | IC50 [3, 8]: 1.3 ng/mL (≈ 3.3 nM); IC50 [4, 9]: 2.8 ng/mL (≈ 7.12 nM)
c1cnn(C[C@H]2CC[C@]3(CC2)OOC2(O3)C3CC4CC(C3)CC2C4)c1 (stereo partly shown) [OZ211] | 8.0 days | 82 | 7.3 days | 78% | 8.7 days | 99.90 | – | – | IC50 [3, 11]: 1.2 ng/mL (≈ 3.48 nM); IC50 [4, 12]: 1 ng/mL (≈ 2.9 nM)
O=C1CN(C(=O)C[C@H]2CC[C@]3(CC2)OO[C@]2(O3)C3CC4CC(C3)CC2C4)CCN1 [OZ296] | – | – | 10.0 days | 99.22% | – | – | – | – | Survival (days) 3 mg/kg SSV po ([1]; single 3 mg/kg po in SSV): 9.2 days; Activity (%) 3 mg/kg SSV po ([1]; single 3 mg/kg po in SSV, percent reduction in parasitemia on day 3): 90%; IC50 [3, 11]: 0.89 ng/mL (≈ 2.2 nM); IC50 [4, 12]: 0.6 ng/mL (≈ 1.48 nM)
O=C1OC2(CCC3(CC2)OOC2(O3)C3CC4CC(C3)CC2C4)c2ccccc21 (stereo not shown) [OZ149, Adamantane-2-spiro-3′-1′,2′,4′-trioxaspiro[4.5]decane-8′-spiro-1″-3″-oxo-3″H-isobenzofuran] | 7.7 days | 64 | 6.0 days | 3% | 14.3 days | 87 | – | – | IC50 [3, 11]: 8.8 ng/mL (≈ 23 nM); IC50 [4, 12]: 8 ng/mL (≈ 20.9 nM)
c1cc(CN2CCC3(CC2)OOC2(O3)C3CC4CC(C3)CC2C4)ccn1 (stereo not shown) [OZ216, Adamantane-2-spiro-3′-8′-(4′-pyridinylmethyl)-1′,2′,4′-trioxa-8′-azaspiro[4.5]decane] | 6.3 days | 62 | 7.7 days | 69% | 11.0 days | 99.02 | – | – | IC50 [3, 11]: 0.67 ng/mL (≈ 1.88 nM); IC50 [4, 12]: 0.4 ng/mL (≈ 1.12 nM)
O=C(C[C@H]1CC[C@]2(CC1)OO[C@]1(O2)C2CC3CC(C2)CC1C3)Nc1nnn[nH]1 [OZ278] | – | – | 7.3/ND days | 56/ND % | – | – | – | – | IC50 [3, 8]: 39 ng/mL (≈ 100 nM); IC50 [4, 9]: 23 ng/mL (≈ 59.1 nM)
CCOC(=O)CCC[C@H]1CC[C@]2(CC1)OOC1(O2)C2CC3CC(C2)CC1C3 (stereo partly shown) [OZ260] | 6.7 days | 72 | 7.0 days | 51% | 7.7 days | 81 | – | – | IC50 [3, 11]: 4.3 ng/mL (≈ 11.4 nM); IC50 [4, 12]: 5.6 ng/mL (≈ 14.8 nM)
c1ccc(CN2CCC3(CC2)OOC2(O3)C3CC4CC(C3)CC2C4)cc1 (stereo not shown) [OZ220, Adamantane-2-spiro-3′-8′-benzyl-1′,2′,4′-trioxa-8′-azaspiro[4.5]decane] | 6.0 days | 40 | 5.3 days | 0% | 10.0 days | 99.95 | – | – | IC50 [3, 11]: 4.9 ng/mL (≈ 13.8 nM); IC50 [4, 12]: 6.9 ng/mL (≈ 19.4 nM)
